Experimental data from ChEMBL document CHEMBL1201862, “PubChem BioAssay data set” (2004).
Activity calls are given as the source filed them.

Experiments:
Vero = experiment: mammalian cell viability reduction – secondary assay, cytotoxicity control for West Nile virus antiviral project, dose response (AID 1650); type: functional; details: Chlorocebus sabaeus
HeLa = experiment: viability loss in HeLa cells – cell-based, ATP luminescence, cherry-pick samples, cytotoxicity control, dose response (AID 687004); type: functional; details: Homo sapiens
[1] = Trypanosoma cruzi growth suppression in host cells – NIH3T3 host cells, beta-gal luminescence, confirmation (AID 2044); type: functional, cell-based;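 further: intracellular parasites grown in NIH/3T3 mouse fibroblasts as host cells; luminescent beta-galactosidase reporter signal from transgenic T. cruzi replicating inside host cells; inhibitors lower the luminescence signal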
[2] = NIH3T3 cell viability loss – ATP luminescence, mouse fibroblasts, counter-screen, dose response (AID 2010); type: functional, cell-based;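 further: cells exposed to compound for about 90 hours before reading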
Aspartyl aminopeptidase = molecular target: T1, Aspartyl aminopeptidase (Plasmodium falciparum 3D7, UniProt Q8I2J3); experiment: Counterscreen for inhibitors of M1 and M17 aminopeptidases: QFRET-based biochemical high throughput dose response assay for inhibitors of the Plasmodium falciparum M18 Aspartyl Aminopeptidase (PFM18AAP). [Related PubChem assays: 1619 (Screening assay (M17LAP inhibitors).), 1445 (Screening assay (M1AAP inhibitors).)]
T1 sequence (Q8I2J3 whole entry): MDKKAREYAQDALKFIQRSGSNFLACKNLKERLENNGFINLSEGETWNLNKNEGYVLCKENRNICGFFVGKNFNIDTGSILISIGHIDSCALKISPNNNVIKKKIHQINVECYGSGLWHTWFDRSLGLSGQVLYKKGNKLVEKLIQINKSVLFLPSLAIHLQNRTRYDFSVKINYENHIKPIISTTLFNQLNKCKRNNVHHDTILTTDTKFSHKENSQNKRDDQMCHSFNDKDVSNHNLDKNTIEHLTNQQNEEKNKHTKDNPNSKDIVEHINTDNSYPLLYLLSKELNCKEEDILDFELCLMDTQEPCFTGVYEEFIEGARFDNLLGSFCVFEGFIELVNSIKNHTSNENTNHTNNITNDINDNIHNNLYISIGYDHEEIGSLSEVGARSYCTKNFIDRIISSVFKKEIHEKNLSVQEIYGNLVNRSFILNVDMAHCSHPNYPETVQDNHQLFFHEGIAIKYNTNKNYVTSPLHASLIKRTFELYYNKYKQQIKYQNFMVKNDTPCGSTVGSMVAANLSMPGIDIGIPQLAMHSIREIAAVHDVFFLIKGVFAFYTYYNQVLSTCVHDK

Leucine aminopeptidase = molecular target: T2, Leucine aminopeptidase (Plasmodium falciparum 3D7, UniProt Q8IL11); experiment: P. falciparum M17LAP inhibitors, primary screen, biochemical, fluorogenic H-Leu-NHMec substrate, 1536-well (AID 1619); type: functional
T2 sequence (Q8IL11 whole entry): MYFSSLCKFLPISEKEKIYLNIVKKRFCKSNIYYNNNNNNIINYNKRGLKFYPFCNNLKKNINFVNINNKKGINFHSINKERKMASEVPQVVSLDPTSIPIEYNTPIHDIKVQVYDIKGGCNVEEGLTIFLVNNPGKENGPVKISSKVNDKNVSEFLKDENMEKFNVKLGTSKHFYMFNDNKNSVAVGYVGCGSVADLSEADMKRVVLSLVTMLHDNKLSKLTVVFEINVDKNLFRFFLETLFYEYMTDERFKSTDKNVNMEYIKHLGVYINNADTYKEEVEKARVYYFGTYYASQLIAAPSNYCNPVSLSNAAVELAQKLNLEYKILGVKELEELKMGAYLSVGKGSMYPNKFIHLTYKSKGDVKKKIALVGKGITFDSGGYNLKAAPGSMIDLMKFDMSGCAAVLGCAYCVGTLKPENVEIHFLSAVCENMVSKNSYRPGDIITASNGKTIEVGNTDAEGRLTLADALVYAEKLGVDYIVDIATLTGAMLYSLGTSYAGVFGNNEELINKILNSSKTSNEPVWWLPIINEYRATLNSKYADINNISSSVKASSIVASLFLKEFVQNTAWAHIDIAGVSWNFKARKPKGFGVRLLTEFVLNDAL

Procathepsin L = Procathepsin L (Homo sapiens, UniProt P07711); experiment: CTSL1 protease inhibition – biochemical, QFRET, 1536-well, counter-screen for M1/M17 aminopeptidase inhibitor project, dose response (AID 2214)
Procathepsin L, sequence (P07711 whole entry, the tested form may be a part): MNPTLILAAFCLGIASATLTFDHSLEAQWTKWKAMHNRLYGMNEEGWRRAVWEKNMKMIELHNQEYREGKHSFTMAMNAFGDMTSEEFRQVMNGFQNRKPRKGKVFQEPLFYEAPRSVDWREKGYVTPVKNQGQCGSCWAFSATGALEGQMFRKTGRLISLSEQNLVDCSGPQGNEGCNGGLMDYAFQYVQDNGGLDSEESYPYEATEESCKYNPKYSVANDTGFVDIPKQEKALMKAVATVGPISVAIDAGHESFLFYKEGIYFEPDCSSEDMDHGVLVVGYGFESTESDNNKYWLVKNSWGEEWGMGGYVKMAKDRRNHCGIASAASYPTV

[3] = molecular target: Disintegrin and metalloproteinase domain-containing protein 17 (Homo sapiens, UniProt P78536); experiment: exosite inhibitors of ADAM17, dose response, biochemical (AID 743260)
Disintegrin and metalloproteinase domain-containing protein 17, sequence (P78536 whole entry, the tested form may be a part): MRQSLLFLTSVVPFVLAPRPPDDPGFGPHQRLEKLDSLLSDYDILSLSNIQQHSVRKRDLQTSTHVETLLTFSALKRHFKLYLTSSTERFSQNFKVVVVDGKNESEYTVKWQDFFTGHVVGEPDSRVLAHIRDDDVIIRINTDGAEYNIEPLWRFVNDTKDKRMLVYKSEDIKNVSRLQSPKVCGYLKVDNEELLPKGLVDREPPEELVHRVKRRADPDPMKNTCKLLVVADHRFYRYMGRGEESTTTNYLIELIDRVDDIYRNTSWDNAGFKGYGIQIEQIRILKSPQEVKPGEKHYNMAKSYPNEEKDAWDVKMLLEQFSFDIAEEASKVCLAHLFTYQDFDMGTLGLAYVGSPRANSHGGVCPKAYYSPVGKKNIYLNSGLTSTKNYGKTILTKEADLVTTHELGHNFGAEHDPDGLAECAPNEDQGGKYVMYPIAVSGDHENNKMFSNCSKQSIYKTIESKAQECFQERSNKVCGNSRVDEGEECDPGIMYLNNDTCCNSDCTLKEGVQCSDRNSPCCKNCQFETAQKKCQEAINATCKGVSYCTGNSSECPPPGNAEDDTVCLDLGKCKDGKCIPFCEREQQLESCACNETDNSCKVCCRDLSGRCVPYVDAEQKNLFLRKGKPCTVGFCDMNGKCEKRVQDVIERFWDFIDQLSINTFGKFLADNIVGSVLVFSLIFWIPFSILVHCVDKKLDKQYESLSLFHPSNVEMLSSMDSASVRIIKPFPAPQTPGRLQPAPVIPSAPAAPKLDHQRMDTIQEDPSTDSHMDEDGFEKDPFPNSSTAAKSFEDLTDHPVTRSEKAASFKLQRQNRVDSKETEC

[4] = tested on: Streptococcus sp. 'group A'; experiment: Streptococcus pyogenes SK(-)GAS viability under kanamycin – luminescence, BacTiterGlo, confirmation, counter-screen for streptokinase expression inhibitor project, dose response (AID 1900); type: functional, organism-based
Streptokinase A = molecular target: T3, Streptokinase A (Streptococcus pyogenes serotype M1, UniProt P10520); experiment: viability-normalized secreted streptokinase activity reduction – plasminogen activation absorbance, OD405, dose response (AID 1914); type: functional, Streptococcus pyogenes M1 GAS;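 further: secreted streptokinase activity via plasminogen activation per viability signal from cell pellet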
T3 sequence (P10520 whole entry): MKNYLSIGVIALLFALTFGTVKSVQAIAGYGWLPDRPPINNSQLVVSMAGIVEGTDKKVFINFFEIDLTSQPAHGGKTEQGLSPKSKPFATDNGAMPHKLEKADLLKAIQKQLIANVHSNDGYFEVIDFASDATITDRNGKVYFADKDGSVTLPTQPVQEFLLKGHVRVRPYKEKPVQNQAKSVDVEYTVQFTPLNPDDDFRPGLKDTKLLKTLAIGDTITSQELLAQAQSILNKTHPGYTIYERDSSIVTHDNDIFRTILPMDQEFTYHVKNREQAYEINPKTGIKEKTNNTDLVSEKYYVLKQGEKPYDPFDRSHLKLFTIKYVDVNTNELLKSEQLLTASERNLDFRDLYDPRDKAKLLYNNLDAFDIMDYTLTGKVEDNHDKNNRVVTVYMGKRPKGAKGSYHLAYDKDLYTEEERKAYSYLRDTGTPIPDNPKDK

[5] = inhibition of ADAM10 peptide cleavage – biochemical, FRET peptide substrate, recombinant human ADAM10, selectivity assay for ADAM17 exosite inhibitor project, dose response (AID 743259);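 further: ADAM10 enzyme cleaving a FRET peptide substrate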
Streptococcus = experiment: GAS UMAA2166 growth inhibition – luminescence, BacTiterGlo, counter-screen for streptokinase expression inhibitor project, dose response (AID 1915); type: functional, organism-based;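 further: potency for reduction of bacterial viability or growth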
[6] = molecular target: T4, Apoptotic protease-activating factor 1 (Homo sapiens, UniProt O14727); type: functional
T4 sequence (O14727 whole entry): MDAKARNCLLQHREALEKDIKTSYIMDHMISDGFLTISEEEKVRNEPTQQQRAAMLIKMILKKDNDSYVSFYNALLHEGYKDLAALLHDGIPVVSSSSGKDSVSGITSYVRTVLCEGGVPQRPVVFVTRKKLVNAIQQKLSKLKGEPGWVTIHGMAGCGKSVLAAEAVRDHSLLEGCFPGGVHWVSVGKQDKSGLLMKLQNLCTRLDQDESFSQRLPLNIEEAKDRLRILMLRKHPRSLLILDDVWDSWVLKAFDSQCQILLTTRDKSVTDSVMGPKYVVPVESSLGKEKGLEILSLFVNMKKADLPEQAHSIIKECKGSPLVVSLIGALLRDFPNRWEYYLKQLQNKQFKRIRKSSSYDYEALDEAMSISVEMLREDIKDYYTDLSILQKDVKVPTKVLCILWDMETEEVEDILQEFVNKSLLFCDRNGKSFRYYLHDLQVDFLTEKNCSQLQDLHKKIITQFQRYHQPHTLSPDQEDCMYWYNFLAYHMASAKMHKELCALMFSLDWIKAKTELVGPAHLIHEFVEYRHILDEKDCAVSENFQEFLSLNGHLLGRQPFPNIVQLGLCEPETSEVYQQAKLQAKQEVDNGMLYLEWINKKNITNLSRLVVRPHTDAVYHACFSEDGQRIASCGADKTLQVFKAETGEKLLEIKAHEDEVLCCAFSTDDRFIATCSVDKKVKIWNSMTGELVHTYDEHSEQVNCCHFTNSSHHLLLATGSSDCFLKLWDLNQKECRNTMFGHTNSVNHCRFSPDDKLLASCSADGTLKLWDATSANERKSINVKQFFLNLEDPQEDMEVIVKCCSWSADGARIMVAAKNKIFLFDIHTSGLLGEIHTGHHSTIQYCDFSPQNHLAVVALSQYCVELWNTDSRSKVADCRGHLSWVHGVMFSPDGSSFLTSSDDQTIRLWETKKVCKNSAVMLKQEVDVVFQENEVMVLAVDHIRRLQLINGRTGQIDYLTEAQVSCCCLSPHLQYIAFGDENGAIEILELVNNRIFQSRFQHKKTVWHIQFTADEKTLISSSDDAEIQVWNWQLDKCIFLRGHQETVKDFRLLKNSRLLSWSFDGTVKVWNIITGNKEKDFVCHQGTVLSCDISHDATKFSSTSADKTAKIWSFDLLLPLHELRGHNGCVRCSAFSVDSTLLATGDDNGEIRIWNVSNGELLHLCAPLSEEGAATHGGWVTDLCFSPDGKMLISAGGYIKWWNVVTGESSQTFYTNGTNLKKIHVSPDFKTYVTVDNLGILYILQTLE

[7] = activation of miR-122 Renilla sensor silencing – cell-based, Huh7 psiCHECK-miR122, Renilla luciferase, cherry-picked, dose response (AID 651956); type: functional;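 further: huh7 hepatoma cells stably carrying a psiCHECK-2 miR-122 sensor plasmid; renilla luciferase signal reporting endogenous miR-122 activity after 48 h compound exposure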
Paired box protein Pax-8 = Paired box protein Pax-8 (Homo sapiens, UniProt Q06710); experiment: PAX8 transcriptional activity inhibition in RMG-I – RMG-I cells, luciferase, cherry-pick, dose response (AID 687027); type: functional, cell-based;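 further: luciferase reporter driven by Pax8 target thyroperoxidase promoter measured by SteadyGlo luminescence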
Paired box protein Pax-8, sequence (Q06710 whole entry): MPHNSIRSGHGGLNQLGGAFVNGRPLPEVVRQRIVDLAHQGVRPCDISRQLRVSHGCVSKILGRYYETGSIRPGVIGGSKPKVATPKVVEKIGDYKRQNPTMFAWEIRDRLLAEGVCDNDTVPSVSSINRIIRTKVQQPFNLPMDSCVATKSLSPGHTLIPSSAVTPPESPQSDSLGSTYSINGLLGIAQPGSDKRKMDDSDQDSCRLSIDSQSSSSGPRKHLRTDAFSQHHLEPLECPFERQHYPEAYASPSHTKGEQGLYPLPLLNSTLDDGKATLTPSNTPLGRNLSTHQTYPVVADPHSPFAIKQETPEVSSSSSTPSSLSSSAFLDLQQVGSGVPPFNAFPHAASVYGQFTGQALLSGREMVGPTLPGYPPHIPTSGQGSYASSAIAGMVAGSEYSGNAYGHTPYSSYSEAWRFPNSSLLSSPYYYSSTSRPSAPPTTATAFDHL

[8] = general mammalian cell viability loss – inhibitor set, cherry-pick, set 2, cytotoxicity control for miR-122 modulator project, dose response (AID 720697); type: functional, cell-based
[9] = P. falciparum Dd2 growth inhibitors, dose response, SYBR Green, cherry-picked samples (AID 1159567); type: functional, cell-based
[10] = cytotoxicity in MITF-independent A375 cells – cell-based, CellTiter-Glo luminescence, dry powder, set 4, counter-screen for MITF inhibitor project, dose response (AID 624364); type: functional; details: A-375;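 further: A375 melanoma cells are MITF independent so this is a counter screen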
[11] = viability loss in MITF-independent A375 cells – cell-based, CellTiter-Glo luminescence, dry powder, set 2, counter-screen for MITF inhibitor project, dose response (AID 624489); type: functional; details: A-375;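 further: actives are compounds lowering A375 viability meaning general cytotoxicity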
[12] = molecular target: T5, RNA-editing ligase 1, mitochondrial (Trypanosoma brucei brucei, UniProt P86926); experiment: inhibition of trypanosome RNA editing ligase – biochemical, fluorescence, Trypanosoma brucei, dose response (AID 1117295); type: functional
T5 sequence (P86926 whole entry): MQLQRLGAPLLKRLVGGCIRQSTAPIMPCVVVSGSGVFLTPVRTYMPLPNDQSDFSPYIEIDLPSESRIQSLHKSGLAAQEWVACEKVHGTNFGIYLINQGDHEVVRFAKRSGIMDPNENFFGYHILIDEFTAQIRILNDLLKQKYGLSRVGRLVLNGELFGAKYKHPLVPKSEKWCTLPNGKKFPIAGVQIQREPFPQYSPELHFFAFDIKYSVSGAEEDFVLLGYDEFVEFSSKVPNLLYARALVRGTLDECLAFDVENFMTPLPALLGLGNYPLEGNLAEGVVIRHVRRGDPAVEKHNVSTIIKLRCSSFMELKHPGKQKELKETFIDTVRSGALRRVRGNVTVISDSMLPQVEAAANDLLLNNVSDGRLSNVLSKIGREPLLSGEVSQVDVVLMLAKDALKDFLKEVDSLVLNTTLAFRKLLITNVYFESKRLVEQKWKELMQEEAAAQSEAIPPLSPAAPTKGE

[13] = Potency on glucagon-like peptide 1 release, dose-response in NCI-H716 cell line, half maximal inhibitory concentration (AID 1117344); type: functional, cell-based

O=C1COc2ccc(C(=O)CSc3nc4ccccc4c(=O)n3-c3ccc(Cl)c(Cl)c3)cc2N1
CC50 (Vero): 16.6 µM (active)

COc1cc(C(=O)Oc2ccccc2N)cc(OC)c1OC
AC50 (HeLa): > 52 µM (inactive)

O=C(CCN1C(=O)/C(=C/c2ccc(F)cc2)SC1=S)N[C@@H](CO)Cc1ccccc1
CC50 (Vero): 49.9 µM (active)

CC(C)(CN=C(S)NCCc1ccccc1)CN=C(S)NCCc1ccccc1
CC50 (Vero): 23.7 µM (active) | EC50 [1]: 3.35 µM (active) | EC50 [2]: > 60 µM (not active)

COc1ccc(OC)c(NC(=O)C2C(C(=O)O)C3(Cl)C(Cl)=C(Cl)C2(Cl)C3(Cl)Cl)c1 (stereo unspecified)
IC50 (Aspartyl aminopeptidase): > 73.5 µM (not active) | IC50 (Leucine aminopeptidase): < 1 µM (active) | IC50 (Procathepsin L): > 59.6 µM (not active)

CC1CCCCN1C(=O)CSc1nc(C2CC2)nc2c1cnn2-c1ccccc1 (stereo unspecified)
AC50 (HeLa): > 52 µM (inactive)

COc1ccc(NC(S)=Nc2nc(CC(=O)Nc3ccccc3OC)cs2)cc1
IC50 [3]: > 69.5 µM (inactive) | EC50 [4]: 6.09 µM (active) | EC50 (Streptokinase A): > 150 µM (not active) | IC50 [5]: > 2.58 µM (active) | EC50 (Streptococcus): 17.3 µM (active)

COC(=O)C1=C(c2ccc(F)cc2OCc2ccccc2)C[C@@H]2CC[C@H]1N2C(=O)NCc1cccc(C(F)(F)F)c1
IC50 [3]: > 69.5 µM (inactive) | IC50 [5]: > 69.5 µM (inactive)

COCCN(Cc1ccccc1)C(=O)c1cccc(S(=O)(=O)N2CCN(c3ccccc3)CC2)c1
IC50 [6]: > 100 µM (inactive)

CCc1noc(C)c1C(=O)OC(C)C(=O)Nc1ccc2c(c1)OCO2 (stereo unspecified)
IC50 [3]: > 69.6 µM (inactive) | IC50 [5]: > 69.6 µM (inactive)

C[C@H](CO)N1C[C@H](C)[C@@H](CN(C)Cc2ccc(-c3ccccc3)cc2)Oc2ccc(NC(=O)Cc3ccccc3)cc2CC1=O
AC50 [7]: 21.3 µM (active) | AC50 (Paired box protein Pax-8): 9.36 µM (active) | AC50 [8]: 28.7 µM (active)

C[C@@H]1CN([C@@H](C)CO)C(=O)c2cc(NC(=O)Nc3ccccc3)ccc2O[C@@H]1CN(C)C(=O)Nc1cccc2ccccc12
AC50 [9]: 8.14 µM (active) | AC50 (HeLa): > 52 µM (inactive)

CCN(CC)CCNC1=C(Nc2ccccc2)C(=O)c2ccccc2C1=O
AC50 [10]: > 70 µM (inactive) | AC50 [11]: > 70 µM (inactive)

CN1C(=O)c2cc(NC(=O)Cc3ccccc3)ccc2OC[C@H]2O[C@@H](CC(=O)NC3CCC3)CC[C@@H]21
AC50 [8]: 9.59 µM (active)

Cc1ccc(C(=O)NC2=C(c3ccccc3)C(=O)c3ccccc3C2=O)o1
AC50 [10]: 21.8 µM (active) | AC50 [11]: 19.1 µM (active)

COC(=O)C1=C(C)N(Cc2cccc(C(F)(F)F)c2)C(NCc2ccc(OC)cc2)=NC1c1ccccc1C(F)(F)F (stereo unspecified)
IC50 [12]: > 96.6 µM (inactive)

COc1ccc(C2=C(NC(=O)c3cccc(OC)c3)C(=O)c3ccccc3C2=O)cc1
AC50 [10]: 29.5 µM (active) | AC50 [11]: 13.6 µM (active)

COc1ccc(C2=C(NC(=O)c3ccccc3Cl)C(=O)c3ccccc3C2=O)cc1
AC50 [10]: 17.5 µM (active) | AC50 [11]: 11.8 µM (active)

CCN(CC)CCOc1ccc(/C(=C(\Cl)c2ccccc2)c2ccccc2)cc1 [CLOMIPHENE]
IC50 [13]: > 40 µM (inactive)
